Results: ChEMBL document CHEMBL1201862, “PubChem BioAssay data set” (2004)
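Growth conditions: 96-well plates. Treatment: test compound, 48 hours, 5 concentrations. Analysis: linear interpolation between bracketing concentrations; unreached endpoints set to highest concentration. Here, GI50 denotes the concentration required for 50% inhibition of growth.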 Active and inactive are the calls of the source. Rule as the data show it: active = GI50 up to about 1.1 µM and inactive = higher.

How the values were obtained:
Assay in all cases: NCI anticancer screen, dose series, 48 h
K562 = test system: K562
Malme-3M = test system: Malme-3M
SF-268 = test system: SF-268
ACHN = test system: ACHN
IGROV-1 = test system: IGROV-1
RPMI-8226 = test system: RPMI-8226
SK-MEL-5 = test system: SK-MEL-5
SF-539 = test system: SF-539
NCI-H460 = test system: NCI-H460
KM12 = test system: KM12
HCC 2998 = test system: HCC 2998
HT-29 = test system: HT-29
SK-MEL-2 = test system: SK-MEL-2
MOLT-4 = test system: MOLT-4
UACC-257 = test system: UACC-257
HL-60 = test system: HL-60
SK-OV-3 = test system: SK-OV-3
SR = test system: SR

SMILES	GI50 (K562)	GI50 (Malme-3M)	GI50 (SF-268)	GI50 (ACHN)	GI50 (IGROV-1)	GI50 (RPMI-8226)	GI50 (SK-MEL-5)	GI50 (SF-539)	GI50 (NCI-H460)	GI50 (KM12)	GI50 (HCC 2998)	GI50 (HT-29)	GI50 (SK-MEL-2)	GI50 (MOLT-4)	GI50 (UACC-257)	GI50 (HL-60)	GI50 (SK-OV-3)	GI50 (SR)
CCOC(=O)C(=C=Cc1cccs1)C(=O)c1ccccc1	37.4 µM (inactive)	15.7 µM (inactive)	15.9 µM (inactive)	18.8 µM (inactive)	17.3 µM (inactive)	18.3 µM (inactive)	3.38 µM (inactive)	16.5 µM (inactive)	20.4 µM (inactive)	12.3 µM (inactive)	17.4 µM (inactive)	19.4 µM (inactive)	19 µM (inactive)	19.2 µM (inactive)	12.9 µM (inactive)	24.6 µM (inactive)	20.3 µM (inactive)	19.9 µM (inactive)
C=CCc1cc(-c2cc(CC=C)c(O)c(CNC)c2)cc(CNC)c1O	10.4 µM (inactive)	18.7 µM (inactive)	16.3 µM (inactive)	17.8 µM (inactive)	18 µM (inactive)	20.7 µM (inactive)	16.1 µM (inactive)		16.3 µM (inactive)	16.6 µM (inactive)	16.3 µM (inactive)	15.3 µM (inactive)	18.6 µM (inactive)	10.9 µM (inactive)	16 µM (inactive)	14.9 µM (inactive)		
COc1ccc(/C=N/N=C(\N)NO)cc1O	82.8 µM (inactive)	16.6 µM (inactive)	32 µM (inactive)		84.1 µM (inactive)	> 100 µM (inactive)	31.9 µM (inactive)	31.2 µM (inactive)	25.5 µM (inactive)	45.8 µM (inactive)	17.5 µM (inactive)	40.9 µM (inactive)	76.4 µM (inactive)	> 100 µM (inactive)			80.2 µM (inactive)	
N#CC1CC2(C(=O)C1=O)c1ccccc1-c1ccccc12 (configuration not stated)	86.1 µM (inactive)	> 100 µM (inactive)	> 100 µM (inactive)	> 100 µM (inactive)	> 100 µM (inactive)		> 100 µM (inactive)		> 100 µM (inactive)	> 100 µM (inactive)	> 100 µM (inactive)	> 100 µM (inactive)	> 100 µM (inactive)	> 100 µM (inactive)	> 100 µM (inactive)	> 100 µM (inactive)	> 100 µM (inactive)	> 100 µM (inactive)
N#CC(C#N)=C1SCC(=O)CS1	> 100 µM (inactive)	> 100 µM (inactive)	> 100 µM (inactive)		> 100 µM (inactive)	> 100 µM (inactive)	> 100 µM (inactive)	> 100 µM (inactive)	> 100 µM (inactive)	> 100 µM (inactive)	> 100 µM (inactive)	> 100 µM (inactive)		> 100 µM (inactive)	> 100 µM (inactive)	> 100 µM (inactive)	> 100 µM (inactive)	> 100 µM (inactive)
C=Cc1c(-c2ccccc2)cnc2[nH]c3ccccc3c12	> 50 µM (inactive)	> 50 µM (inactive)	> 50 µM (inactive)	> 50 µM (inactive)	> 50 µM (inactive)	> 50 µM (inactive)	> 50 µM (inactive)		> 50 µM (inactive)	2.43 µM (inactive)	> 50 µM (inactive)	> 50 µM (inactive)	> 50 µM (inactive)	> 50 µM (inactive)	> 50 µM (inactive)	> 50 µM (inactive)	> 50 µM (inactive)	> 50 µM (inactive)
CC(=O)Oc1ccccc1C(=O)C1c2cccc(O)c2C(=O)c2c(O)cccc21	0.366 µM (active)	1.95 µM (inactive)	0.927 µM (active)	0.771 µM (active)	0.986 µM (active)	0.374 µM (active)	1.05 µM (active)	0.46 µM (active)	0.433 µM (active)	0.421 µM (active)	0.581 µM (active)	2.59 µM (inactive)	1.19 µM (inactive)	1.46 µM (inactive)	1.62 µM (inactive)	0.222 µM (active)	0.543 µM (active)	0.419 µM (active)
O=C1CSC(/C(=C/c2ccccc2)c2nc3ccccc3[nH]2)=N1	> 100 µM (inactive)	60.5 µM (inactive)	> 100 µM (inactive)	> 100 µM (inactive)	44.9 µM (inactive)		19.7 µM (inactive)	23.6 µM (inactive)	> 100 µM (inactive)	32.4 µM (inactive)	> 100 µM (inactive)	73.6 µM (inactive)	58.2 µM (inactive)	> 100 µM (inactive)	> 100 µM (inactive)	71.9 µM (inactive)	23.3 µM (inactive)	68.2 µM (inactive)
CCCC(O)c1cn(-c2cccc(S(=O)(=O)O)c2)nn1 (configuration not stated)	> 100 µM (inactive)	> 100 µM (inactive)	> 100 µM (inactive)	> 100 µM (inactive)	> 100 µM (inactive)	> 100 µM (inactive)	> 100 µM (inactive)	> 100 µM (inactive)	> 100 µM (inactive)	> 100 µM (inactive)	> 100 µM (inactive)	> 100 µM (inactive)	> 100 µM (inactive)	> 100 µM (inactive)	> 100 µM (inactive)	> 100 µM (inactive)	> 100 µM (inactive)	
[N-]=[N+]=NC(c1cn(C2CC(O)C(CO)O2)c(=O)[nH]c1=O)C(Br)Br (configuration not stated)	> 100 µM (inactive)	> 100 µM (inactive)		> 100 µM (inactive)	> 100 µM (inactive)	> 100 µM (inactive)	> 100 µM (inactive)	> 100 µM (inactive)	> 100 µM (inactive)	> 100 µM (inactive)	> 100 µM (inactive)	> 100 µM (inactive)	> 100 µM (inactive)	> 100 µM (inactive)		> 100 µM (inactive)	> 100 µM (inactive)	> 100 µM (inactive)
CC(C)(C)NNC(=O)/C(=C/c1ccc([N+](=O)[O-])cc1)NC(=O)c1ccccc1	> 100 µM (inactive)	> 100 µM (inactive)	55.8 µM (inactive)	> 100 µM (inactive)	> 100 µM (inactive)	45 µM (inactive)	> 100 µM (inactive)	> 100 µM (inactive)	60.1 µM (inactive)	> 100 µM (inactive)	> 100 µM (inactive)	> 100 µM (inactive)	> 100 µM (inactive)	41.3 µM (inactive)	> 100 µM (inactive)	44.8 µM (inactive)	> 100 µM (inactive)	21.6 µM (inactive)
C/C(=N/Nc1ccc([N+](=O)[O-])cc1[N+](=O)[O-])C(CC(C(=O)Nc1ccccc1C)/C(C)=N\Nc1ccc([N+](=O)[O-])cc1[N+](=O)[O-])C(=O)Nc1ccccc1C (configuration not stated)	> 100 µM (inactive)	22.5 µM (inactive)	7.67 µM (inactive)	19.7 µM (inactive)	15.8 µM (inactive)	> 35 µM (inactive)	17.2 µM (inactive)	13 µM (inactive)	12.5 µM (inactive)	15.3 µM (inactive)	21.6 µM (inactive)	14.8 µM (inactive)	13.3 µM (inactive)		14.4 µM (inactive)	1.19 µM (inactive)	30.1 µM (inactive)	
N#CCC(=O)N1CCCCCCC1	> 100 µM (inactive)	> 100 µM (inactive)	> 100 µM (inactive)	> 100 µM (inactive)	> 100 µM (inactive)		> 100 µM (inactive)	> 100 µM (inactive)	42.7 µM (inactive)	76.4 µM (inactive)	69.3 µM (inactive)	29.6 µM (inactive)	> 100 µM (inactive)		> 100 µM (inactive)	28.2 µM (inactive)	> 100 µM (inactive)	
CCN(CC)Cc1cc(Nc2c3ccccc3nc3c2[nH]c2ccccc23)ccc1O	1.87 µM (inactive)	1.9 µM (inactive)	1.42 µM (inactive)	0.875 µM (active)	1.16 µM (inactive)	1.96 µM (inactive)	1.89 µM (inactive)	1.35 µM (inactive)	0.75 µM (active)	1.36 µM (inactive)		0.52 µM (active)	1.34 µM (inactive)	0.508 µM (active)	2.44 µM (inactive)	2.16 µM (inactive)	2.11 µM (inactive)	0.337 µM (active)
COC1(C)C(=O)N2C1N(C(=O)OC(C)(C)C)CC2(C)C (configuration not stated)	> 100 µM (inactive)	> 100 µM (inactive)	> 100 µM (inactive)	> 100 µM (inactive)	> 100 µM (inactive)	44.8 µM (inactive)	> 100 µM (inactive)	> 100 µM (inactive)	81.3 µM (inactive)	> 100 µM (inactive)	> 100 µM (inactive)	> 100 µM (inactive)	> 100 µM (inactive)	> 100 µM (inactive)	> 100 µM (inactive)	> 100 µM (inactive)	> 100 µM (inactive)	
COc1ccc(C(=O)C/C(=N/NC(N)=S)C(=O)Nc2ccccc2)cc1	> 100 µM (inactive)	> 100 µM (inactive)	> 100 µM (inactive)	> 100 µM (inactive)	> 100 µM (inactive)	> 100 µM (inactive)	> 100 µM (inactive)	> 100 µM (inactive)	> 100 µM (inactive)	> 100 µM (inactive)	> 100 µM (inactive)	> 100 µM (inactive)	> 100 µM (inactive)	> 100 µM (inactive)	> 100 µM (inactive)	> 100 µM (inactive)	> 100 µM (inactive)	
COC(=O)C1=C(O)C(O)=C(C(=O)OC)CC1	> 100 µM (inactive)	> 100 µM (inactive)	> 100 µM (inactive)	> 100 µM (inactive)	> 100 µM (inactive)	> 100 µM (inactive)	> 100 µM (inactive)	> 100 µM (inactive)	> 100 µM (inactive)	> 100 µM (inactive)	> 100 µM (inactive)	> 100 µM (inactive)	> 100 µM (inactive)	> 100 µM (inactive)	> 100 µM (inactive)	> 100 µM (inactive)	> 100 µM (inactive)	> 100 µM (inactive)
